Measured values as given in PubChem BioAssay (NCI).
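Grown in 96-well plates, cells were treated for 48 hours with each compound at five concentrations. Insufficient inhibition: endpoint recorded as highest concentration tested. The concentration for 50% growth inhibition is given as GI50. TGI is the concentration that stops growth completely.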

Experiments:
Experiment in all cases: NCI anticancer screen, dose series, 48 h
DU-145 prostate = tested on: DU-145 prostate
PC-3 prostate = tested on: PC-3 prostate
SF-539 CNS = tested on: SF-539 CNS
NCI-H460 lung = tested on: NCI-H460 lung
RXF 393 renal = tested on: RXF 393 renal
OVCAR-4 ovarian = tested on: OVCAR-4 ovarian
OVCAR-5 ovarian = tested on: OVCAR-5 ovarian
NCI-H23 lung = tested on: NCI-H23 lung
SF-295 CNS = tested on: SF-295 CNS
HT29 colon = tested on: HT29 colon
SF-268 CNS = tested on: SF-268 CNS
SNB-19 CNS = tested on: SNB-19 CNS
SK-MEL-28 melanoma = tested on: SK-MEL-28 melanoma
HL-60(TB) leukemia = tested on: HL-60(TB) leukemia
UO-31 renal = tested on: UO-31 renal
SR leukemia = tested on: SR leukemia
MDA-MB-435 = tested on: MDA-MB-435
U251 CNS = tested on: U251 CNS
UACC-257 melanoma = tested on: UACC-257 melanoma
CCRF-CEM leukemia = tested on: CCRF-CEM leukemia
T-47D breast = tested on: T-47D breast
TK-10 renal = tested on: TK-10 renal
KM12 colon = tested on: KM12 colon
MALME-3M melanoma = tested on: MALME-3M melanoma
HCC-2998 colon = tested on: HCC-2998 colon
K-562 leukemia = tested on: K-562 leukemia
BT-549 breast = tested on: BT-549 breast
MCF7 breast = tested on: MCF7 breast
SNB-75 CNS = tested on: SNB-75 CNS

Which results are given for `O=C(Nc1ccc(-n2ccc3c(NC(=O)c4ccccc4)ncnc32)cc1)c1ccc(Cl)c(C(F)(F)F)c1`?
GI50 (DU-145 prostate): 1.48 µM; TGI (DU-145 prostate): 8.46 µM; GI50 (PC-3 prostate): 3.57 µM; TGI (PC-3 prostate): 14.7 µM; GI50 (SF-539 CNS): 3.63 µM; TGI (SF-539 CNS): > 54.7 µM; GI50 (NCI-H460 lung): 0.204 µM; TGI (NCI-H460 lung): 4.8 µM; GI50 (RXF 393 renal): 4.74 µM; TGI (RXF 393 renal): 15.4 µM; GI50 (OVCAR-4 ovarian): 2.63 µM; TGI (OVCAR-4 ovarian): 9.42 µM; GI50 (OVCAR-5 ovarian): 3.87 µM; TGI (OVCAR-5 ovarian): 22.5 µM; GI50 (NCI-H23 lung): 13.1 µM; TGI (NCI-H23 lung): 40.7 µM; GI50 (SF-295 CNS): 1.91 µM; TGI (SF-295 CNS): 20 µM; GI50 (HT29 colon): 0.752 µM; TGI (HT29 colon): 6.16 µM; GI50 (SF-268 CNS): 2.17 µM; TGI (SF-268 CNS): 15.2 µM; GI50 (SNB-19 CNS): 4.21 µM; TGI (SNB-19 CNS): 17.8 µM; GI50 (SK-MEL-28 melanoma): 4.9 µM; TGI (SK-MEL-28 melanoma): 15.3 µM; GI50 (HL-60(TB) leukemia): 4.99 µM; TGI (HL-60(TB) leukemia): > 52.8 µM; GI50 (UO-31 renal): 7.13 µM; TGI (UO-31 renal): 23.7 µM; GI50 (SR leukemia): 0.145 µM; TGI (SR leukemia): > 20.1 µM; GI50 (MDA-MB-435): 2.12 µM; TGI (MDA-MB-435): 10.3 µM; GI50 (U251 CNS): 0.462 µM; TGI (U251 CNS): 5.75 µM; GI50 (UACC-257 melanoma): 5.17 µM; TGI (UACC-257 melanoma): 24.5 µM; GI50 (CCRF-CEM leukemia): 0.849 µM; TGI (CCRF-CEM leukemia): 18.2 µM; GI50 (T-47D breast): 2.9 µM; TGI (T-47D breast): 13.8 µM; GI50 (TK-10 renal): 5.17 µM; TGI (TK-10 renal): 12.9 µM; GI50 (KM12 colon): 0.939 µM; TGI (KM12 colon): 7.71 µM; GI50 (MALME-3M melanoma): 6.41 µM; TGI (MALME-3M melanoma): 21.2 µM; GI50 (HCC-2998 colon): 4.5 µM; TGI (HCC-2998 colon): 23.5 µM; GI50 (K-562 leukemia): 0.42 µM; TGI (K-562 leukemia): > 35 µM; GI50 (BT-549 breast): 15.1 µM; TGI (BT-549 breast): 48.8 µM; GI50 (MCF7 breast): 1.91 µM; TGI (MCF7 breast): 15.6 µM; GI50 (SNB-75 CNS): 1.55 µM; TGI (SNB-75 CNS): 11.4 µM
